Test results: patent US8231693B2, “5-substituted 2-(alkoxymethyl)furans” (Furanix Technologies B.V., priority 2007, dated 2012)

Assay: Fuel solubility: miscibility in blends with commercial diesel
Format: physicochemical
Excerpt: Fuel solubility is a primary concern for diesel fuel applications. Not all highly polar oxygenates have good solubility in the current commercial diesel fuels.

[1] = all blend ratios with commercial diesel

CCOCc1ccc(COCC)o1 [2,5-di(ethoxymethyl)furan]
miscibility with commercial diesel [1]: miscible in all blend ratio's

CCOCc1ccc(COC(C)(C)C)o1 [5-(tertbutoxymethyl)-2-(ethoxymethyl)furan]
miscibility with commercial diesel [1]: miscible in all blend ratio's

CCOCc1ccc(C=O)o1 [EMF, 5-(ethoxymethyl)furfural]
miscibility with commercial diesel (5 vol % blend with commercial diesel): completely miscible | miscibility with commercial diesel (25 vol % blend with diesel): phase separation occurs | miscibility with commercial diesel (40 vol % blend with diesel): phase separation occurs
